According to PubChem BioAssay AID330 (DTP/NCI, 2004):
Where “and” joins values, the source holds several entries; their conditions need not be identical. Equal values may be shown once. Inconclusive results and toxic doses are left out.

System: P388 leukemia ip, CD2F1 mice, survival T/C
Test: NCI In Vivo Anticancer Drug Screen. Data for tumor model P388 Leukemia (intraperitoneal) in CD2F1 (CDF1) mice
Conditions: endpoint: median survival time, higher = longer survival
Outline: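 Mice carrying the transplanted tumor received test compound or vehicle. Survival was recorded in each group, and the value is the treated-group measurement divided by that of the vehicle-treated control group.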

[1] = dose: 50.0 mg/kg/injection, schedule: Q01DX005 (ip), vehicle: Klucel (hydroxypropylcellulose) (HPC)
[2] = dose: 100.0 mg/kg/injection, schedule: Q01DX005 (ip), vehicle: Klucel (hydroxypropylcellulose) (HPC)
[3] = dose: 200.0 mg/kg/injection, schedule: Q01DX005 (ip), vehicle: Klucel (hydroxypropylcellulose) (HPC)
[4] = dose: 100.0 mg/kg/injection, schedule: Q01DX001 (ip), vehicle: Klucel (hydroxypropylcellulose) (HPC)
[5] = dose: 200.0 mg/kg/injection, schedule: Q01DX001 (ip), vehicle: Klucel (hydroxypropylcellulose) (HPC)
[6] = dose: 400.0 mg/kg/injection, schedule: Q01DX001 (ip), vehicle: Klucel (hydroxypropylcellulose) (HPC)
[7] = dose: 60.0 mg/kg/injection, schedule: Q01DX005 (ip), vehicle: saline with Tween-80
[8] = dose: 120.0 mg/kg/injection, schedule: Q01DX005 (ip), vehicle: saline with Tween-80
[9] = dose: 240.0 mg/kg/injection, schedule: Q01DX005 (ip), vehicle: saline with Tween-80
[10] = dose: 50.0 mg/kg/injection, schedule: Q01DX005 (ip), vehicle: saline with Tween-80
[11] = dose: 100.0 mg/kg/injection, schedule: Q01DX005 (ip), vehicle: saline with Tween-80
[12] = dose: 200.0 mg/kg/injection, schedule: Q01DX005 (ip), vehicle: saline with Tween-80
[13] = dose: 50.0 mg/kg/injection, schedule: Q01DX005 (ip), vehicle: saline
[14] = dose: 100.0 mg/kg/injection, schedule: Q01DX005 (ip), vehicle: saline
[15] = dose: 200.0 mg/kg/injection, schedule: Q01DX005 (ip), vehicle: saline
[16] = dose: 100.0 mg/kg/injection, schedule: Q04DX003 (ip), vehicle: saline with Tween-80
[17] = dose: 200.0 mg/kg/injection, schedule: Q04DX003 (ip), vehicle: saline with Tween-80
[18] = dose: 400.0 mg/kg/injection, schedule: Q04DX003 (ip), vehicle: saline with Tween-80
[19] = dose: 100.0 mg/kg/injection, schedule: Q04DX002 (ip), vehicle: saline
[20] = dose: 200.0 mg/kg/injection, schedule: Q04DX002 (ip), vehicle: saline
[21] = dose: 400.0 mg/kg/injection, schedule: Q04DX002 (ip), vehicle: saline
[22] = dose: 100.0 mg/kg/injection, schedule: Q01DX009 (ip), vehicle: saline with Tween-80
[23] = dose: 200.0 mg/kg/injection, schedule: Q01DX009 (ip), vehicle: saline with Tween-80
[24] = dose: 100.0 mg/kg/injection, schedule: Q01DX009 (ip), vehicle: Klucel (hydroxypropylcellulose) (HPC)
[25] = dose: 200.0 mg/kg/injection, schedule: Q01DX009 (ip), vehicle: Klucel (hydroxypropylcellulose) (HPC)
[26] = dose: 50.0 mg/kg/injection, schedule: Q01DX009 (ip), vehicle: saline with Tween-80

For `Cc1ccc(N2CC=C(c3ccccc3)OP2(=O)N2CC2)cc1` (configuration not stated), the T/C [1] was 101 % of control, the T/C [2] was 101 % of control and the T/C [3] was 94 % of control.
`Cc1cc(=O)n2c(c1)[nH]c1ccccc12` was tested, and the T/C [4] was 89 % of control, the T/C [5] was 90 % of control and the T/C [6] was 88 % of control.
For `O=CNc1ccn[nH]1`, the T/C (dose: 50.0 mg/kg/injection, schedule: Q01DX009 (ip), vehicle: saline) was 106 % of control, the T/C (dose: 100.0 mg/kg/injection, schedule: Q01DX009 (ip), vehicle: saline) was 101 % of control and the T/C (dose: 200.0 mg/kg/injection, schedule: Q01DX009 (ip), vehicle: saline) was 100 % of control.
With `O=C(CCCl)N/N=C/c1ccccc1` the T/C (dose: 2.5 mg/kg/injection, schedule: Q01DX009 (ip), vehicle: saline) was 104 % of control, the T/C (dose: 5.0 mg/kg/injection, schedule: Q01DX009 (ip), vehicle: saline) was 98 % of control and 101 % of control and the T/C (dose: 10.0 mg/kg/injection, schedule: Q01DX009 (ip), vehicle: saline) was 114 % of control and 115 % of control.
For `COC(=O)C1(CC(=O)c2cc(Cl)ccc2Cl)NC(=S)NC(=O)C1C#N` (configuration not stated), the T/C [7] was 94 % of control, the T/C [8] was 92 % of control and the T/C [9] was 95 % of control.
For `CS(=O)(=O)O/C=C1\CCc2ccccc2C1=O`, the T/C [10] was 98 % of control, the T/C [11] was 98 % of control and the T/C [12] was 105 % of control.
`C[CH2][Sn]([CH2]C)([S]CCS(=O)(=O)O)[S]CCS(=O)(=O)O` was tested, and the T/C (dose: 0.93 mg/kg/injection, schedule: Q01DX005 (ip), vehicle: saline) was 95 % of control and the T/C (dose: 1.87 mg/kg/injection, schedule: Q01DX005 (ip), vehicle: saline) was 95 % of control.
For `COC1(c2ccccc2)N=C(N)NC1(OC)c1ccccc1` (configuration not stated), the T/C (dose: 6.25 mg/kg/injection, schedule: Q04DX002 (ip), vehicle: saline) was 103 % of control, the T/C (dose: 12.5 mg/kg/injection, schedule: Q04DX002 (ip), vehicle: saline) was 102 % of control and the T/C (dose: 25.0 mg/kg/injection, schedule: Q04DX002 (ip), vehicle: saline) was 98 % of control.
For `CCOC(=O)C(N)(CO)Cc1ccccc1` (configuration not stated), the T/C [13] was 103 % of control, the T/C [14] was 100 % of control and the T/C [15] was 99 % of control.
`CC(C)C1OC(c2ccc(Cl)cc2)OCC1(C)C` (configuration not stated) was tested, and the T/C [16] was 114 % of control, the T/C [17] was 110 % of control and the T/C [18] was 97 % of control.
For `CCCSP(=S)(c1ccc(Cl)cc1)c1ccc(Cl)cc1`, the T/C [19] was 106 % of control, the T/C [20] was 103 % of control and the T/C [21] was 103 % of control.
In the case of `CCCCN(CC(O)c1cc2c(c3ccccc13)CCCC2)c1ccc(OC)cc1` (configuration not stated), the T/C [10] is reported as 115 % of control, the T/C [11] is reported as 101 % of control and the T/C [12] is reported as 101 % of control.
With `CCOC(=O)N(C)CCc1cc(OC)c(OC)cc1/C=C\c1ccc(OC)c(OC)c1` the T/C (dose: 12.5 mg/kg/injection, schedule: Q01DX001 (ip), vehicle: saline + alcohol) was 100 % of control, the T/C (dose: 25.0 mg/kg/injection, schedule: Q01DX001 (ip), vehicle: saline + alcohol) was 98 % of control and the T/C (dose: 50.0 mg/kg/injection, schedule: Q01DX001 (ip), vehicle: saline + alcohol) was 98 % of control.
In the case of `COC(=O)/C=C(\C)Oc1c(Cl)c(Cl)c(Cl)c(Cl)c1Cl`, the T/C (dose: 50.0 mg/kg/injection, schedule: Q04DX003 (ip), vehicle: saline sonified) is reported as 110 % of control, the T/C [22] is reported as 91 % of control and the T/C (dose: 100.0 mg/kg/injection, schedule: Q04DX003 (ip), vehicle: saline sonified) is reported as 110 % of control. The T/C [23] was 100 % of control, the T/C (dose: 200.0 mg/kg/injection, schedule: Q04DX003 (ip), vehicle: saline sonified) was 110 % of control and the T/C (dose: 400.0 mg/kg/injection, schedule: Q01DX009 (ip), vehicle: saline with Tween-80) was 91 % of control.
In the case of `O=C(c1ccccc1)c1cccs1`, the T/C (dose: 22.0 mg/kg/injection, schedule: Q01DX009 (ip), vehicle: saline with Tween-80) is reported as 113 % of control, the T/C (dose: 44.0 mg/kg/injection, schedule: Q01DX009 (ip), vehicle: saline with Tween-80) is reported as 104 % of control and the T/C (dose: 88.0 mg/kg/injection, schedule: Q01DX009 (ip), vehicle: saline with Tween-80) is reported as 109 % of control.
For `C=CCCCCCCCCC(=O)NN1CCOCC1`, the T/C [16] was 95 % of control, the T/C [17] was 100 % of control and the T/C [18] was 86 % of control.
For `CC(=O)OCC(OC(C)=O)C(OC(C)=O)C(OC1OC(COC(C)=O)C(OC(C)=O)C(OC(C)=O)C1OC(C)=O)C(COC(C)=O)OC(C)=O` (configuration not stated), the T/C (dose: 50.0 mg/kg/injection, schedule: Q01DX005 (ip), vehicle: suspension in saline) was 97 % of control, the T/C (dose: 100.0 mg/kg/injection, schedule: Q01DX005 (ip), vehicle: suspension in saline) was 91 % of control and the T/C (dose: 200.0 mg/kg/injection, schedule: Q01DX005 (ip), vehicle: suspension in saline) was 99 % of control.
In the case of `COC(=O)CCC(=S)N(C)C`, the T/C [1] is reported as 101 % of control, the T/C [2] is reported as 101 % of control and the T/C [3] is reported as 103 % of control.
In the case of `CCOC(=O)c1ccccc1SC(C[N+](=O)[O-])c1ccccc1` (configuration not stated), the T/C (dose: 50.0 mg/kg/injection, schedule: Q01DX009 (ip), vehicle: Klucel (hydroxypropylcellulose) (HPC)) is reported as 105 % of control, the T/C [24] is reported as 110 % of control and the T/C [25] is reported as 110 % of control.
For `CC(CC(=O)c1cccc([N+](=O)[O-])c1)=NCC(C)N=C(C)CC(=O)c1cccc([N+](=O)[O-])c1` (configuration not stated), the T/C [16] was 98 % of control, the T/C [17] was 101 % of control and the T/C [18] was 106 % of control.
In the case of `CCCC(O)C(NC(=O)c1ccccc1)C(=O)O` (configuration not stated), the T/C [26] is reported as 92 % of control, the T/C [22] is reported as 98 % of control and 95 % of control and the T/C [23] is reported as 95 % of control and 98 % of control.
In the case of `CCC(C)NC(=O)C(C)O` (configuration not stated), the T/C [13] is reported as 95 % of control, the T/C [14] is reported as 99 % of control and the T/C [15] is reported as 97 % of control.
With `Cc1ccc(S(=O)(=O)NNC(=O)c2ccccc2Nc2cccc(Br)c2)cc1` the T/C [4] was 97 % of control, the T/C [5] was 97 % of control and the T/C [6] was 98 % of control.
`Cc1nnc(NC/C=C/c2ccccc2)s1` was tested, and the T/C [7] was 100 % of control, the T/C [8] was 96 % of control and the T/C [9] was 95 % of control.
In the case of `O=C1N(Cl)C2(c3ccccc3)N(Cl)C(=O)N(Cl)C2(c2ccccc2)N1Cl` (configuration not stated), the T/C (dose: 25.0 mg/kg/injection, schedule: Q04DX003 (ip), vehicle: Klucel (hydroxypropylcellulose) (HPC)) is reported as 103 % of control and the T/C (dose: 50.0 mg/kg/injection, schedule: Q04DX003 (ip), vehicle: Klucel (hydroxypropylcellulose) (HPC)) is reported as 110 % of control.
For `CCC(c1ccc(O)cc1)c1cc2c(cc1OCC(=O)O)OCO2` (configuration not stated), the T/C [10] was 102 % of control, the T/C [11] was 93 % of control and the T/C [12] was 99 % of control.
In the case of `c1ccc(N2CCN(C(c3cccs3)N3CCN(c4ccccc4)CC3)CC2)cc1`, the T/C [7] is reported as 100 % of control and the T/C [8] is reported as 99 % of control.
In the case of `OC(/C=C/c1ccccc1)Cc1nc2ccccc2[nH]1` (configuration not stated), the T/C [7] is reported as 98 % of control and the T/C [8] is reported as 88 % of control.
For `CCOC(C)n1c(C)nc2ccccc21` (configuration not stated), the T/C [19] was 99 % of control, the T/C [20] was 101 % of control and the T/C [21] was 97 % of control.
For `CCOc1ccc(C(C[N+](=O)[O-])Sc2ccccc2N)cc1` (configuration not stated), the T/C [7] was 97 % of control, the T/C [8] was 106 % of control and the T/C [9] was 113 % of control.
For `CCOC(=O)C1(CC)C(=O)C=C(c2ccccc2)CC1c1ccccc1` (configuration not stated), the T/C [24] was 99 % of control, the T/C [25] was 94 % of control and the T/C (dose: 400.0 mg/kg/injection, schedule: Q01DX009 (ip), vehicle: Klucel (hydroxypropylcellulose) (HPC)) was 94 % of control.
With `O=[N+]([O-])c1cc(S(=O)(=O)NCc2ccco2)ccc1N/N=C/c1ccccn1` the T/C [23] was 86 % of control.
`Cc1ccc(NC(=O)C(Cl)(Cl)Cl)cc1[N+](=O)[O-]` was tested, and the T/C [16] was 104 % of control, the T/C [17] was 100 % of control and the T/C [18] was 100 % of control.
In the case of `COP(=O)(OC)O[Si](C)(C)CC[Si](C)(C)Cl`, the T/C [1] is reported as 105 % of control, the T/C [2] is reported as 105 % of control and the T/C [3] is reported as 99 % of control.
`CCNCc1nc2sc3c(c2c(=O)[nH]1)CCCC3` was tested, and the T/C [26] was 105 % of control, the T/C [22] was 94 % of control and the T/C [23] was 99 % of control.
